Test results published in US8580835B2, “Solid forms of a microbiocide” (Syngenta Crop Protection, LLC, priority 2007, dated 2013).

Experiments:
Format in all cases: physicochemical
[1] = thermodynamic stability (DSC, solubility tests and other experiments); details: compared with modification A
Protocol: (§1) The resulting change of particle sizes could lead to a change of the stability of the formulated suspension.
Characteristic for modification C is also the thermogram in differential scanning calorimetry (“DSC”) (see FIG. 3). It has an endothermic peak typically in the range from 130° C. to 142° C., but this will depend on purity. For example, crystal modification C in pure form has typically a peak temperature of 141° C. and an endothermic signal typically around 83 J/g. This thermogram is characteristically different from the thermograms of modifications A and B. Modification A has an endothermic peak at about 112° C. and an endothermic signal of 76; modification B has a peak at about 128° C. and a signal of 90 J/g (see PCT/EP2006/00898, FIGS. 5-6). All measurements were carried out on a Metier Toledo 820 DSC in a closed, but not sealed, pan with a heating rate of 10 K/minute. The typical sample quantity is about 5 mg.

water solubility = details: over relevant temperature ranges; compared with modification A
Description: as §1

[2] = storage stability in aqueous suspensions and in solid form under humid conditions; details: aqueous suspensions (such as SC-formulations) and storage in solid form under humid conditions; compared with amorphous material or modification I

SMILES	thermodynamic stability [1]	water solubility (water solubility)	storage stability [2]
CC(C)C1C2CCC1c1c(NC(=O)c3cn(C)nc3C(F)F)cccc12 (mixture of isomers) [modification C, racemic syn-3-difluoromethyl-1-methyl-1H-pyrazole-4-carboxylic acid (9-isopropyl-1,2,3,4-tetrahydro-1,4-methano-naphthalen-5-yl)-amide]	substantially better thermodynamic stability than modification A	lower than the water solubility of modification A	
CC(C)C1C2CCC1c1c(NC(=O)c3cn(C)nc3C(F)F)cccc12 (mixture of isomers) [monohydrate in form A, racemic anti-3-difluoromethyl-1-methyl-1H-pyrazole-4-carboxylic acid (9-isopropyl-1,2,3,4-tetrahydro-1,4-methano-naphthalen-5-yl)-amide]			much more stable under those circumstances compared with amorphous material or with the modification I
